Measured values published in patent US20240041042A1, “1-(PYRIDYL)-5-AZINYLPYRAZOLE DERIVATIVES, AND THEIR USE FOR CONTROL OF UNDESIRED PLANT GROWTH” (Bayer Aktiengesellschaft, priority 2020, published 2024).

Assays:
Type in all cases: in vivo
[1] = test system: Polygonum convolvulus (POLCO); experiment: Pre-emergence herbicidal action against POLCO; conditions: dosage 320 g/ha
In short: (§1)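 Application rates ran to 320 g/ha or lower, with several dosages tested on the same weeds. The compound, as wettable powder or emulsion concentrate, is sprayed pre-emergence onto soil over sown seeds; greenhouse growth follows, and effect is rated visually after roughly 3 weeks.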

Avena fatua (AVEFA) [2] = experiment: Pre-emergence herbicidal action against AVEFA; conditions: visual scoring after about 3 weeks vs untreated controls
In short: as §1

[3] = test system: Abutilon theophrasti (ABUTH); experiment: Pre-emergence herbicidal action against ABUTH; conditions: 100% = plants have died
In short: as §1

[4] = test system: Pharbitis purpurea (PHBPU); experiment: Pre-emergence herbicidal action against PHBPU; conditions: dosage 320 g/ha
In short: as §1

[5] = test system: Alopecurus myosuroides (ALOMY); experiment: Post-emergence herbicidal action against ALOMY; conditions: visual rating about 3 weeks after treatment vs untreated controls (100% = plants have died, 0% = like control plants)
In short: (§2)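 Doses of 320 g/ha or lower, suffixes a, b and c marking different dosages, were applied post-emergence at the one-leaf stage in 600 l/ha water with 0.5% additive. Damage was assessed visually after about 3 weeks in the greenhouse.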

Zea mays (ZEAMX) [6] = conditions: pre-emergence, 80 g/ha, crop plant compatibility, in comparison to untreated controls
In short: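 Crop injury rated visually in percent against untreated plants roughly 3 weeks after treatment (0% no effect, 100% plants dead). Compounds, as WP or EC with 0.5% additive in 600 l/ha water, were applied to the covering soil right after sowing; greenhouse growth. Suffixes a, b, c denote different dosages.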

[7] = test system: Polygonum convolvulus (POLCO); experiment: Post-emergence herbicidal action against POLCO; conditions: dosage 320 g/ha
In short: as §2

[8] = test system: Abutilon theophrasti (ABUTH); experiment: Post-emergence herbicidal action against ABUTH; conditions: visual rating about 3 weeks after treatment vs untreated controls (100% = plants have died, 0% = like control plants)
In short: as §2

Lolium rigidum (LOLRI) [9] = experiment: Post-emergence herbicidal action against LOLRI; conditions: dosage 320 g/ha
In short: as §2

[10] = test system: Alopecurus myosuroides (ALOMY); experiment: Pre-emergence herbicidal action against ALOMY; conditions: 320 g/ha; scored visually after about 3 weeks; 100% = plants have died
In short: as §1

Viola tricolor (VIOTR) [11] = experiment: Post-emergence herbicidal action against VIOTR
In short: as §2

[12] = test system: Amaranthus retroflexus (AMARE); experiment: Pre-emergence herbicidal action against AMARE; conditions: 320 g/ha, visual scoring after about 3 weeks vs untreated controls
In short: as §1

[13] = test system: Amaranthus retroflexus (AMARE); experiment: Post-emergence herbicidal action against AMARE
In short: as §2

Setaria viridis (SETVI) [14] = experiment: Pre-emergence herbicidal action against SETVI; conditions: dosage 320 g/ha
In short: as §1

Zea mays (ZEAMX) [15] = conditions: crop plant compatibility, 80 g/ha, effect vs untreated controls
In short: (§3)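 Test crops were treated 2 to 3 weeks after sowing, once they reached one leaf, by spraying compound in water with 0.5% additive at 600 l/ha. Visual scoring compared them with untreated controls roughly 3 weeks on, and appendices a, b and c denote different doses.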

Oryza sativa (ORYSA) = conditions: crop plant compatibility, 80 g/ha, effect in comparison to untreated controls
In short: as §3

Lolium rigidum (LOLRI) [16] = experiment: Pre-emergence herbicidal action against LOLRI; conditions: dosage 320 g/ha
In short: as §1

Setaria viridis (SETVI) [17] = experiment: Post-emergence herbicidal action against SETVI; conditions: dosage 320 g/ha
In short: as §2

[18] = test system: Verconica persica (VERPE); experiment: Post-emergence herbicidal action against VERPE
In short: as §2

[19] = test system: Matricaria inodora (MATIN); experiment: Pre-emergence herbicidal action against MATIN
In short: as §1

[20] = test system: Echinochloa crus-galli (ECHCG); experiment: Post-emergence herbicidal action against ECHCG
In short: as §2

Viola tricolor (VIOTR) [21] = experiment: Pre-emergence herbicidal action against VIOTR
In short: as §1

[22] = test system: Pharbitis purpurea (PHBPU); experiment: Post-emergence herbicidal action against PHBPU
In short: as §2

[23] = test system: Verconica persica (VERPE); experiment: Pre-emergence herbicidal action against VERPE; conditions: dosage 320 g/ha
In short: as §1

Avena fatua (AVEFA) [24] = experiment: Post-emergence herbicidal action against AVEFA; conditions: 320 g/ha, visual rating about 3 weeks after treatment
In short: as §2

[25] = test system: Echinochloa crus-galli (ECHCG); experiment: Pre-emergence herbicidal action against ECHCG; conditions: dosage 320 g/ha
In short: as §1

[26] = Dosage column 320 g/ha (title prints 3200 g/ha), scored visually after about 3 weeks
[27] = 80 g/ha, visual rating about 3 weeks after treatment vs untreated controls (100% = plants have died, 0% = like control plants)
[28] = 320 g/ha, visual rating about 3 weeks after treatment

Pre-emergence action against ZEAMX in % (Zea mays (ZEAMX) [6]) [%]	Post-emergence action against ZEAMX in % (Zea mays (ZEAMX) [15]) [%]	Post-emergence action against ORYSA in % (Oryza sativa (ORYSA)) [%]	SMILES	Pre-emergence action against POLCO in % [1] [%]	Pre-emergence action against AVEFA in % (Avena fatua (AVEFA) [2]; 320 g/ha) [%]	Pre-emergence action against ABUTH [3, 26] [%]	Pre-emergence action against PHBPU in % [4] [%]	Post-emergence action against ALOMY in % ([5]; 320 g/ha) [%]	Post-emergence action against ABUTH in % ([8]; 80 g/ha) [%]	Post-emergence action against ABUTH in % ([8]; 320 g/ha) [%]	Post-emergence action against LOLRI in % (Lolium rigidum (LOLRI) [9]) [%]	Pre-emergence action against ALOMY [10] [%]	Post-emergence action against VIOTR in % (Viola tricolor (VIOTR) [11]; 320 g/ha) [%]	Pre-emergence action against AMARE in % [12] [%]	Post-emergence action against AMARE in % [13, 27] [%]	Post-emergence action against AMARE in % [13, 28] [%]	Pre-emergence action against SETVI in % (Setaria viridis (SETVI) [14]) [%]	Pre-emergence action against LOLRI in % (Lolium rigidum (LOLRI) [16]) [%]	Post-emergence action against SETVI in % (Setaria viridis (SETVI) [17]) [%]	Post-emergence action against VERPE in % ([18]; 320 g/ha, VERPE) [%]	other results
20	0	0	O=C(O)COc1nn(-c2ncccc2C(F)(F)F)c(-c2ccc(F)nc2)c1Cl [Example I-327]	90	80	100	80	100	80	90	90	100	90	100	90	90	100	100	90	90	Pre-emergence action against ABUTH ([3]; 80 g/ha, scored visually after about 3 weeks vs untreated controls, 0% = like control plants): 100%; Post-emergence action against POLCO in % [7]: 80%; Post-emergence action against VIOTR in % (Viola tricolor (VIOTR) [11]; 80 g/ha): 90%; Post-emergence action against VERPE in % ([18]; dosage 80 g/ha): 80%; Pre-emergence action against MATIN in % ([19]; dosage 80 g/ha): 80%; Pre-emergence action against MATIN in % ([19]; dosage 320 g/ha): 80%; Post-emergence action against ECHCG in % ([20]; dosage 80 g/ha): 80%; Post-emergence action against ECHCG in % ([20]; dosage 320 g/ha): 90%; Pre-emergence action against VIOTR in % (Viola tricolor (VIOTR) [21]; 320 g/ha, Viola tricolor): 100%; Pre-emergence action against VIOTR in % (Viola tricolor (VIOTR) [21]; dosage 80 g/ha): 100%
20	10	10	CCOC(=O)COc1nn(-c2nc(F)ccc2F)c(-c2ccc(F)nc2)c1Br [Example I-330]	90	90	100	90	90	80	80	90	100	80	100	80	80	100	90	80	80	Pre-emergence action against AVEFA in % (Avena fatua (AVEFA) [2]; 80 g/ha): 80%; Post-emergence action against PHBPU in % ([22]; dosage 80 g/ha): 80%; Post-emergence action against PHBPU in % ([22]; dosage 320 g/ha): 90%; Post-emergence action against ALOMY in % ([5]; 80 g/ha): 80%; Pre-emergence action against VERPE in % [23]: 90%; Post-emergence action against AVEFA in % (Avena fatua (AVEFA) [24]): 80%; Pre-emergence action against ECHCG in % [25]: 100%; Post-emergence action against VERPE in % ([18]; dosage 80 g/ha): 80%; Pre-emergence action against MATIN in % ([19]; dosage 80 g/ha): 80%; Pre-emergence action against MATIN in % ([19]; dosage 320 g/ha): 90%; Post-emergence action against ECHCG in % ([20]; dosage 80 g/ha): 80%; Post-emergence action against ECHCG in % ([20]; dosage 320 g/ha): 90%; Pre-emergence action against VIOTR in % (Viola tricolor (VIOTR) [21]; 320 g/ha, Viola tricolor): 100%; Pre-emergence action against VIOTR in % (Viola tricolor (VIOTR) [21]; dosage 80 g/ha): 90%
